Measured values: patent US11590150B2, “Pharmaceutical composition for preventing or treating adverse drug reactions by statin” (INDUSTRY-ACADEMIC COOPERATION FOUNDATION, YONSEI UNIVERSITY, priority 2017, dated 2023)
Like-named read-outs stand apart in the source and are kept apart here.

What was measured:
[1] = test system: human kidney tubule cell line HK-2; assay: LDH assay of cell death in HK-2 cells treated with statin and/or oxysterol; assay type: cell-based; settings: 1 μM zaragozic acid with 10 μg/mL 25-hydroxycholesterol
Procedure: To analyze the relationship between statins and oxysterols, the human kidney tubule cell line HK-2 (human kidney-2 cell line; ATCC CRL-2190™) was seeded into a 24-well plate at a density of 1×10^5 per well. […] Subsequently, the cells were cultured in an incubator at 37° C. under 5% CO2 for 72 hours, and then the degree of cell death in each well was analyzed using an LDH assay kit (Takara, Cat #. MK401).
In order to examine whether the same results appear even in the presence of various types of oxysteols, an experiment was performed in the same manner as Example 1.1. As statin, 5 μM of atorvastatin was used, and as oxysterols, 0.1 μg/mL of 25-hydroxycholesterol, 7-ketocholesterol, cholesterol 5,6-epoxide, 24-hydroxycholesterol and 27-hydroxycholesterol were used.
In order to examine whether isoprenoid-based compounds can reduce adverse effects which are induced by co-administration of oxysterol and statin, the cell line was treated with oxysterol (0.1 μg/mL of 25-hydroxycholestyerol) and statin (5 μM of atorvastatin) in the same manner as Example 1.1, and treated with 10 μM of farnesyl pyrophosphate, 200 μM of mevalonate or 10 μM of geranylgeranyl pyrophosphate, which is an isoprenoid-based compound.

[2] = test system: neutrophil gelatinase-associated lipocalin (NGAL); assay: Kidney NGAL immunohistochemistry in fluvastatin-fed mice given mevalonate and lipopolysaccharide (Example 6); assay type: in vivo, mouse; settings: mevalonate 30 mg/kg i.p. 4 days
Procedure: (§1) In order to examine whether administration of an isoprenoid-based compound reduces statin-induced adverse effects even in vivo, 100 mg of statin (fluvastatin) was added to 1 kg of feed, and the mixture was fed to 8-week-old C57BL6/J mice for 14 days. Subsequently, mevalonate was administered intraperitoneally to the mice at a dose of 30 mg per kg of mouse body weight for 4 consecutive days, and then lipopolysaccharide (SIGMA) was administered intraperitoneally to mice at a lipopolysaccharide dose of 12 mg per kg of mouse body weight, thereby producing oxysterol in the mouse body. 72 hours after administration of the lipopolysaccharide, the mice were euthanized, and then kidney tissue was extracted by performing cardiac perfusion with 4% paraformaldehyde in DPBS (Dulbecco's phosphate-buffered saline). The extracted kidney tissue was subjected to H & E (Hematoxylin & Eosin) staining, PAS (periodic acid-Schiff) staining and immunohistochemistry of neutrophil gelatinase-associated lipocalin (NGAL) that is an early diagnostic marker of acute renal failure, thereby determining whether acute kidney damage and acute renal failure would occur. In addition, the concentrations of total cholesterol, high-density lipoprotein (HDL) and low-density lipoprotein (LDL) were measured.

[3] = Total cholesterol, HDL and LDL concentrations in mice (Example 6); assay type: in vivo, mouse; settings: statin, oxysterol and mevalonate all administered
Procedure: as §1

C57BL6/J mice = assay type: in vivo, mouse; settings: for therapeutic effect on kidney damage (H & E, PAS): mevalonate 30 mg/kg i.p. 4 days
Procedure: as §1

SMILES	adverse effects / viability of the cells [1]	expression of NGAL ([2]; oxysterol generation induced after administration of statin)	therapeutic effect on expression of NGAL ([2]; oxysterol generation induced without statin)	concentration of low-density lipoprotein [3]	concentration of total cholesterol [3]	therapeutic effect on kidney damage (H & E, PAS) (C57BL6/J mice; group with statin and oxysterol co-administered)	therapeutic effect on kidney damage (H & E, PAS) (C57BL6/J mice; kidney damage caused by oxysterol formation, no statin)	damage to kidney tissue (C57BL6/J mice; statin, oxysterol and mevalonate all administered)
C=C(CC[C@]12O[C@H](C(=O)O)[C@@](O)(C(=O)O)[C@](C(=O)O)(O1)[C@H](OC(=O)/C=C/[C@@H](C)C[C@@H](C)CC)[C@H]2O)[C@@H](OC(C)=O)[C@H](C)Cc1ccccc1 [zaragozic acid]	the adverse effects were reduced to some degrees, and thus the viability of the cells increased	–	–	–	–	–	–	–
CC(O)(CCO)CC(=O)O (centres unmarked) [mevalonate]	–	the expression of NGAL significantly decreased	showed no significant therapeutic effect	decreased	decreased	exhibited a significant effect	showed no therapeutic effect	kidney tissue was not damaged
